Measurements taken from patent publication US20250098673A1, “COMPOSITIONS, MEANS AND METHODS FOR A NOVEL INSECT REPELLENT” (priority 2019, published 2025).

Assays:
[1] = tested on: Whitefly (Bemisia tabaci); test: Study 1: pest control experiment in cauliflower compared to Mospilan; format: in vivo
Procedure: Whitefly (Bemisia tabaci), is a major pest, in many crops around the world. These pests are carriers of several virus diseases and are damaging the leaves and fruit with scratches and punch-and-suck activity. Furthermore, in cauliflower, excreting honeydew on the leaves and fruit, causes to mold development, which can disqualify the products for the market.
DHA was sprayed in two doses on cauliflower, for checking the effect on Whiteflies. These treatments were tested vs. a standard treatment (Mospilan) and a control treatment (not spraying): • DHA, 2.5% (aqueous solution) • DHA, 5% (aqueous solution) • Mospilan (Acetamiprid 200 g/L), 500 ml per hectare • Control (water spraying)
The experiment was implemented with 4 replicates for each treatment (randomly spread). Each replicate was 12 m long and 2 m width. Spraying volume was 40 L/Dunam. The solution for spraying was in a volume of 4 L.
Counting and statistics: Counting Whiteflies and Thrips was made on 20 leaves, selected randomly in each replicate. Variance analysis was made by Tukey-Kramer (α=0.05). Counting was performed every 7 days.

[2] = cited from earlier work
[3] = tested on: Culex quinquefasciatus; test: Arm-in-cage mosquito repellency test on human subjects (Protection Time); format: in vivo; conditions: mean of 5 subjects; Sano data obtained at a different time (historical comparison)
Procedure: In an embodiment of this invention, the insect repellent effect of a 20% DHA solution was studied. These studies were carried out at Poseidon Sciences Insect Control Laboratory (Miagao, Iloilo, Philippines), a breeding facility for C. quinquefasciatus, for research and development. The insect repellency of a DHA solution, comprising 20% DHA dissolved in a 30% ethanol aqueous solution, was compared to that of a Placebo solution, comprising 30% ethanol in water, as a negative control solution. As a positive control, the repellency of DHA was also compared to that of a commercial Sano insect repellent, a plant based repellent, using a composition of 20% of citrepel 75 dissolved in water. The placebo and the 20% DHA solution were kept in a refrigerator until the day of use. The samples were removed from the refrigerator and kept at room temperature for 3 hours before the tests were undertaken.
The above-mentioned solutions were then tested on a total of 10 subjects (age 19 to 44 comprising a total of 6 women and 4 men), all in good health. Each subject had signed an Informed Consent Form. This study had been approved by Poseidon Sciences IRB (Institutional Review Board). […]
Following application of the tested solution to the arm of the subject, testing was carried out as follows: a research scientist recorded the time of insertion of the arm into the cage and observed mosquito landing. […]

Question: For O=C(CO)CO [DHA, Dihydroxyacetone], which “reduction of mature Whitefly compared to control group” value ([1]; adults, significant) is on record?
Answer: ~65%

Question: What about the “reduction of young stage Whitefly (trend)” value ([1]; young stage, trend) of the same molecule?
Answer: ~40%

Question: What about the carcinogenicity ([2]; SCCS report 2010) of the same molecule?
Answer: non-carcinogenic

Question: And the irritancy ([2]; SCCS report 2010)?
Answer: non-irritant

Question: What about the “skin sensitization or photo sensitization” value ([2]; SCCS report 2010) of the same molecule?
Answer: did not cause skin sensitization or photo sensitization effects

Question: What about the systemic absorption ([2]; application to skin) of the same molecule?
Answer: not systemically absorbed

Question: And the “safety of DHA sprays applied to skin” value ([2]; concentrations of up to 10%, SCCS report 2010)?
Answer: safe to use

Question: What about the “Protection Time, Mean” value [3] of the same molecule?
Answer: 45 min
